Assay results from PubChem BioAssay AID1259407 (Chemical Carcinogenesis Research Information System (CCRIS), 2018).
Calls of active or inactive are those of the source. No rule for the calls is given here.

Tested on: CCRIS mutagenicity, Ames/micronucleus/aberration tests
Assay: CCRIS mutagenicity studies
[1] = Test System: AMES SALMONELLA TYPHIMURIUM, Strain/Indicator: TA97, Metabolic Activation: NONE, Method: STANDARD PLATE
[2] = Test System: AMES SALMONELLA TYPHIMURIUM, Strain/Indicator: TA98, Metabolic Activation: NONE, Method: STANDARD PLATE
[3] = Test System: AMES SALMONELLA TYPHIMURIUM, Strain/Indicator: TA98, Metabolic Activation: RAT, LIVER, S-9, AROCLOR 1254, Method: STANDARD PLATE
[4] = Test System: AMES SALMONELLA TYPHIMURIUM, Strain/Indicator: TA100, Metabolic Activation: RAT, LIVER, S-9, AROCLOR 1254, Method: STANDARD PLATE
[5] = Test System: AMES SALMONELLA TYPHIMURIUM, Strain/Indicator: TA1537, Metabolic Activation: NONE, Method: STANDARD PLATE
[6] = Test System: AMES SALMONELLA TYPHIMURIUM, Strain/Indicator: TA98, Metabolic Activation: NONE, Method: PREINCUBATION
[7] = Test System: AMES SALMONELLA TYPHIMURIUM, Strain/Indicator: TA100, Metabolic Activation: NONE, Method: PREINCUBATION
[8] = Test System: AMES SALMONELLA TYPHIMURIUM, Strain/Indicator: TA1535, Metabolic Activation: NONE, Method: PREINCUBATION
[9] = Test System: AMES SALMONELLA TYPHIMURIUM, Strain/Indicator: TA1537, Metabolic Activation: NONE, Method: PREINCUBATION
[10] = Test System: AMES SALMONELLA TYPHIMURIUM, Strain/Indicator: TA100, Metabolic Activation: NONE, Method: STANDARD PLATE

Question: What does the source list for `C=CCC1=C(C)C(OC(=O)[C@@H]2[C@@H](C=C(C)C)C2(C)C)CC1=O` (some centres not stated)?
Answer: mutagenic call [1]: active; positive; mutagenic call (Test System: AMES SALMONELLA TYPHIMURIUM, Strain/Indicator: TA97, Metabolic Activation: RAT, LIVER, S-9, PHENOBARBITONE, Method: STANDARD PLATE): active; positive; mutagenic call (Test System: AMES SALMONELLA TYPHIMURIUM, Strain/Indicator: TA98): active; positive; mutagenic call (Test System: AMES SALMONELLA TYPHIMURIUM, Strain/Indicator: TA98, Metabolic Activation: NONE): inactive; negative; mutagenic call (Test System: AMES SALMONELLA TYPHIMURIUM, Strain/Indicator: TA98, Metabolic Activation: NONE, Method: MICROSUSPENSION): inactive; negative; mutagenic call [2]: inactive; negative; mutagenic call [3]: inactive; negative; mutagenic call (Test System: AMES SALMONELLA TYPHIMURIUM, Strain/Indicator: TA98, Metabolic Activation: RAT, LIVER, S-9, PHENOBARBITONE, Method: STANDARD PLATE): inactive; negative; mutagenic call (Test System: AMES SALMONELLA TYPHIMURIUM, Strain/Indicator: TA98, Metabolic Activation: S-9, Method: MICROSUSPENSION): inactive; negative; mutagenic call (Test System: AMES SALMONELLA TYPHIMURIUM, Strain/Indicator: TA100): active; positive; mutagenic call (Test System: AMES SALMONELLA TYPHIMURIUM, Strain/Indicator: TA100, Metabolic Activation: NONE): active; positive; mutagenic call (Test System: AMES SALMONELLA TYPHIMURIUM, Strain/Indicator: TA100, Metabolic Activation: NONE, Method: MICROSUSPENSION): inactive; negative; mutagenic call [4]: active; positive; mutagenic call (Test System: AMES SALMONELLA TYPHIMURIUM, Strain/Indicator: TA100, Metabolic Activation: RAT, LIVER, S-9, PHENOBARBITONE, Method: STANDARD PLATE): active; positive; mutagenic call (Test System: AMES SALMONELLA TYPHIMURIUM, Strain/Indicator: TA100, Metabolic Activation: S-9, Method: MICROSUSPENSION): inactive; negative; mutagenic call (Test System: AMES SALMONELLA TYPHIMURIUM, Strain/Indicator: TA100, Metabolic Activation: S-9 MIX, Method: STANDARD PLATE): active; positive; mutagenic call (Test System: AMES SALMONELLA TYPHIMURIUM, Strain/Indicator: TA104, Metabolic Activation: NONE, Method: STANDARD PLATE): inactive; negative; mutagenic call (Test System: AMES SALMONELLA TYPHIMURIUM, Strain/Indicator: TA104, Metabolic Activation: RAT, LIVER, S-9, PHENOBARBITONE, Method: STANDARD PLATE): active; positive; mutagenic call (Test System: AMES SALMONELLA TYPHIMURIUM, Strain/Indicator: TA1535, Metabolic Activation: NONE, Method: STANDARD PLATE): inactive; negative; mutagenic call (Test System: AMES SALMONELLA TYPHIMURIUM, Strain/Indicator: TA1535, Metabolic Activation: RAT, LIVER, S-9, AROCLOR 1254, Method: STANDARD PLATE): inactive; negative; mutagenic call [5]: inactive; negative; mutagenic call (Test System: AMES SALMONELLA TYPHIMURIUM, Strain/Indicator: TA1537, Metabolic Activation: RAT, LIVER, S-9, AROCLOR 1254, Method: STANDARD PLATE): inactive; negative; mutagenic call (Test System: E. COLI, Strain/Indicator: WP2, Metabolic Activation: NONE, Method: STANDARD PLATE): inactive; negative; mutagenic call (Test System: E. COLI, Strain/Indicator: WP2, Metabolic Activation: RAT, LIVER, S-9, AROCLOR 1254, Method: STANDARD PLATE): inactive; negative

Question: Which mutagenic call [5] does the source give for `CN(C)CCNC(=O)c1cccn2c(=O)c3ccccc3nc12` here?
Answer: Its mutagenic call is “active; positive”.

Question: How did the mutagenic call [6] turn out when `N#Cc1ccc([N+](=O)[O-])cc1` was run?
Answer: Its mutagenic call is “inactive; negative”.

Question: What about the mutagenic call (Test System: AMES SALMONELLA TYPHIMURIUM, Strain/Indicator: TA98, Method: PREINCUBATION) of the same molecule?
Answer: Its mutagenic call is “inactive; negative”.

Question: And the mutagenic call [7]?
Answer: Its mutagenic call is “inactive; negative”.

Question: And the mutagenic call (Test System: AMES SALMONELLA TYPHIMURIUM, Strain/Indicator: TA100, Method: PREINCUBATION)?
Answer: The mutagenic call was “inactive; negative”.

Question: What about the mutagenic call [8] of the same molecule?
Answer: The mutagenic call was “inactive; negative”.

Question: What about the mutagenic call (Test System: AMES SALMONELLA TYPHIMURIUM, Strain/Indicator: TA1535, Method: PREINCUBATION) of the same molecule?
Answer: Its mutagenic call is “inactive; negative”.

Question: What about the mutagenic call [9] of the same molecule?
Answer: The mutagenic call was “inactive; negative”.

Question: What about the mutagenic call (Test System: AMES SALMONELLA TYPHIMURIUM, Strain/Indicator: TA1537, Method: PREINCUBATION) of the same molecule?
Answer: The mutagenic call was “inactive; negative”.

Question: And the mutagenic call (Test System: AMES SALMONELLA TYPHIMURIUM, Strain/Indicator: TA1538, Metabolic Activation: NONE, Method: PREINCUBATION)?
Answer: Its mutagenic call is “inactive; negative”.

Question: And the mutagenic call (Test System: AMES SALMONELLA TYPHIMURIUM, Strain/Indicator: TA1538, Method: PREINCUBATION)?
Answer: Its mutagenic call is “inactive; negative”.

Question: What does the source list for `BrCc1ccccc1CBr`?
Answer: mutagenic call [2]: inactive; negative; mutagenic call [10]: inactive; negative

Question: Which results are given for `CCCCN(CCO)CCCC`?
Answer: mutagenic call (Test System: AMES SALMONELLA TYPHIMURIUM, Strain/Indicator: TA98, Metabolic Activation: HAMSTER, LIVER, S-9, AROCLOR 1254 (10%), Method: PREINCUBATION): inactive; negative; mutagenic call [6]: inactive; negative; mutagenic call (Test System: AMES SALMONELLA TYPHIMURIUM, Strain/Indicator: TA98, Metabolic Activation: RAT, LIVER, S-9, AROCLOR 1254 (10%), Method: PREINCUBATION): inactive; negative; mutagenic call (Test System: AMES SALMONELLA TYPHIMURIUM, Strain/Indicator: TA100, Metabolic Activation: HAMSTER, LIVER, S-9, AROCLOR 1254 (10%), Method: PREINCUBATION): inactive; negative; mutagenic call [7]: inactive; negative; mutagenic call (Test System: AMES SALMONELLA TYPHIMURIUM, Strain/Indicator: TA100, Metabolic Activation: RAT, LIVER, S-9, AROCLOR 1254 (10%), Method: PREINCUBATION): inactive; negative; mutagenic call (Test System: AMES SALMONELLA TYPHIMURIUM, Strain/Indicator: TA1535, Metabolic Activation: HAMSTER, LIVER, S-9, AROCLOR 1254 (10%), Method: PREINCUBATION): inactive; negative; mutagenic call [8]: inactive; negative; mutagenic call (Test System: AMES SALMONELLA TYPHIMURIUM, Strain/Indicator: TA1535, Metabolic Activation: RAT, LIVER, S-9, AROCLOR 1254 (10%), Method: PREINCUBATION): inactive; negative; mutagenic call (Test System: AMES SALMONELLA TYPHIMURIUM, Strain/Indicator: TA1537, Metabolic Activation: HAMSTER, LIVER, S-9, AROCLOR 1254 (10%), Method: PREINCUBATION): inactive; negative; mutagenic call [9]: inactive; negative; mutagenic call (Test System: AMES SALMONELLA TYPHIMURIUM, Strain/Indicator: TA1537, Metabolic Activation: RAT, LIVER, S-9, AROCLOR 1254 (10%), Method: PREINCUBATION): inactive; negative

Question: With `Clc1ccncc1` as the molecule, how does the mutagenic call [1] read?
Answer: The mutagenic call was “inactive; negative”.

Question: What about the mutagenic call (Test System: AMES SALMONELLA TYPHIMURIUM, Strain/Indicator: TA97, Metabolic Activation: RAT, LIVER, S-9, AROCLOR 1254, Method: STANDARD PLATE) of the same molecule?
Answer: The mutagenic call was “inactive; negative”.

Question: And the mutagenic call [2]?
Answer: The mutagenic call was “inactive; negative”.

Question: What about the mutagenic call [3] of the same molecule?
Answer: Its mutagenic call is “inactive; negative”.

Question: And the mutagenic call [10]?
Answer: Its mutagenic call is “inactive; negative”.

Question: What about the mutagenic call [4] of the same molecule?
Answer: Its mutagenic call is “inactive; negative”.

Question: And the mutagenic call (Test System: AMES SALMONELLA TYPHIMURIUM, Strain/Indicator: TA102, Metabolic Activation: NONE, Method: STANDARD PLATE)?
Answer: Its mutagenic call is “inactive; negative”.

Question: And the mutagenic call (Test System: AMES SALMONELLA TYPHIMURIUM, Strain/Indicator: TA102, Metabolic Activation: RAT, LIVER, S-9, AROCLOR 1254, Method: STANDARD PLATE)?
Answer: The mutagenic call was “inactive; negative”.
